Results reported in patent publication US20070287726A1, “5-Substituted 1H-Pyrrolo [3,2-B] Pyridines” (Altana Pharma AG, priority 2004, published 2007).

Tests used:
[1] = test system: pentagastrin-stimulated acid secretion of the perfused rat stomach; assay: Secretion-inhibiting action on the perfused rat stomach; assay type: in vivo; conditions: anesthetized CD rat
Description: In Table A which follows, the influence of the compounds of the formula 1 according to the invention on the pentagastrin-stimulated acid secretion of the perfused rat stomach after intraduodenal/intravenous administration in vivo is shown.
The abdomen of anesthetized rats (CD rat, female, 200-250 g; 1.5 g/kg i.m. urethane) was opened after tracheotomy by a median upper abdominal incision and a PVC catheter was fixed transorally in the esophagus and another via the pylorus such that the ends of the tubes just projected into the gastric lumen. The catheter leading from the pylorus led outward into the right abdominal wall through a side opening.
After thorough rinsing (about 50-100 ml), warm (37° C.) physiological NaCl solution was continuously passed through the stomach (0.5 ml/min, pH 6.8-6.9; Braun-Unita I). The pH (pH meter 632, glass electrode EA 147; φ=5 mm, Metrohm) and, by titration with a freshly prepared 0.01N NaOH solution to pH 7 (Dosimat 665 Metrohm), the secreted HCl were determined in the effluent in each case collected at an interval of 15 minutes.
The gastric secretion was stimulated by continuous infusion of 1 μg/kg (=1.65 ml/h) of i.v. pentagastrin (left femoral vein) about 30 min after the end of the operation (i.e. after determination of 2 preliminary fractions). The substances to be tested were administered intraduodenally (substance 7 intravenously) in a 2.5 ml/kg liquid volume 60 min after the start of the continuous pentagastrin infusion.
The body temperature of the animals was kept at a constant 37.8-38° C. by infrared irradiation and heat pads (automatic, stepless control by means of a rectal temperature sensor).

Row | melting point | SMILES | Inhibition of acid secretion (%) ([1]; dose 1 μmol/kg i.d.) | other results
1 | 296 °C | CCc1cccc(C)c1CNc1cc(Cl)nc2cc(C)[nH]c12 [Example 1, (5-Chloro-2-methyl-1H-pyrrolo[3,2-b]pyridin-7-yl)-(2-ethyl-6-methyl-benzyl)-amine] | – | –
2 | 274 to 275 °C | CCOC(=O)c1cc(NCc2c(C)cccc2CC)c2[nH]c(C)cc2n1 [Example 2, Ethyl[7-(2-ethyl-6-methyl-benzylamino)-2-methyl-1H-pyrrolo[3,2-b]pyridine-5-carboxylate]] | – | –
3 | – | CCc1cccc(C)c1CNc1cc(C(=O)N(C)C)nc2c(Br)c(C)[nH]c12 [Example 5, 3-Bromo-7-(2-ethyl-6-methyl-benzylamino)-2-methyl-1H-pyrrolo[3,2-b]pyridine-5-carboxylic acid dimethylamide] | >30% | –
4 | – | CCc1cccc(C)c1CNc1cc(C(=O)N(C)C)nc2c(CO)c(C)[nH]c12 [Example 6, 7-(2-Ethyl-6-methyl-benzylamino)-3-hydroxymethyl-2-methyl-1H-pyrrolo[3,2-b]pyridine-5-carboxylic acid dimethylamide] | >30% | –
5 | – | CCc1cccc(C)c1CNc1cc(C(=O)N(C)C)nc2c(C)c(C)[nH]c12 [Example 7, 7-(2-Ethyl-6-methyl-benzylamino)-2,3-dimethyl-1H-pyrrolo[3,2-b]pyridine-5-carboxylic acid dimethylamide] | – | Inhibition of acid secretion (%) ([1]; dose 2 μmol/kg i.v.): >80%
6 | 254 °C | CCOC(=O)c1cc(NCc2c(C)cccc2C)c2[nH]c(C)cc2n1 [Example 9, Ethyl[7-(2,6-dimethyl-benzylamino)-2-methyl-1H-pyrrolo[3,2-b]pyridine-5-carboxylate]] | – | –
7 | – | Cc1cccc(C)c1CNc1cc(C(=O)N(C)C)nc2c(Br)c(C)[nH]c12 [Example 12, 3-Bromo-7-(2,6-dimethyl-benzylamino)-2-methyl-1H-pyrrolo[3,2-b]pyridine-5-carboxylic acid dimethylamide] | – | Inhibition of acid secretion (%) ([1]; dose 3 μmol/kg i.d.): >60%
8 | – | Cc1cccc(C)c1CNc1cc(C(=O)N(C)C)nc2c(C)c(C)[nH]c12 [Example 14, 7-(2,6-Dimethyl-benzylamino)-2,3-dimethyl-1H-pyrrolo[3,2-b]pyridine-5-carboxylic acid dimethylamide] | >50% | –
9 | 256 to 259 °C | CCOC(=O)c1cc(NCc2c(C)cccc2C)c2[nH]c(C)c(CO)c2n1 [Example 19, Ethyl[7-(2,6-dimethyl-benzylamino)-3-hydroxymethyl-2-methyl-1H-pyrrolo[3,2-b]pyridine-5-carboxylate]] | – | –
